The test system of one assay is Staphylococci Oxford. In words: Antibacterial activity of alkylidene-penems (MIC). It counts as cell-based. Particulars: compound alone.
The subject of the next assay is Staphylococci Russell. The assay is described as follows: Antibacterial activity of alkylidene-penems (MIC). It counts as cell-based. Particulars: compound alone.
Another assay has as its system C.freundii T562. The assay is described as follows: MIC of broad spectrum cephalosporins with Example 1b, microtitre technique. The class given is cell-based.
Another assay deals with Ps.aeruginosa Badia IR. The description is as above. The class given is cell-based.
The subject of a further assay is S.marcescens HCN 3956. The description is as above. It counts as cell-based.
The subject of the next assay is E.aerogenes P99. The description is as above. It counts as cell-based.
The subject of another assay is E.cloacae Dokt 5. The assay is described as above. The class given is cell-based.
A further assay has as its system Ps.aeruginosa Charlier. The assay is described as above. The class given is cell-based.
The test system of the next assay is E.cloacae 159/167. Described as above. It counts as cell-based.
The subject of the next assay is E.aerogenes 53. Described as above. It counts as cell-based.
The subject of the next assay is C.freundii T1739. Described as above. It counts as cell-based.
For another assay, the system named is E.cloacae 4508. Described as above. The class given is cell-based.
The test system of the next assay is E.cloacae P383. The description is as above. It counts as cell-based.
In another assay the test system is C.freundii 423. The description is as above. The class given is cell-based.
For a further assay, the system named is S.marcescens V697. The assay is described as above. The class given is cell-based.
In another assay the test system is M.morganii 978. The assay is described as above. It counts as cell-based.
For the next assay, the system named is E.cloacae V692/80. The description is as above. It counts as cell-based.
For a further assay, the system named is E.aerogenes 55. The description is as above. It counts as cell-based.
The next assay concerns E. coli JT39 (RTEM). In words: Effect of alkylidene-penems on the MIC of amoxycillin. It counts as cell-based. Particulars: Amoxycillin alone.
For the next assay, the system named is Kleb aerogenes. The assay is described as above. The class given is cell-based, Klebsiella aerogenes. Particulars: Amoxycillin alone.
A further assay deals with S Aureus Russell. The description is as above. It counts as cell-based. Particulars: Amoxycillin alone.
For a further assay, the system named is E.coli JT410. In words: Effect of alkylidene-penems on the MIC of cephaloridine. The class given is cell-based. Particulars: Cephaloridine alone.
The subject of assay [1] is range of resistant strains. In words: MIC of Example 1b alone, microtitre technique (Table 3). The class given is cell-based. Particulars: Ex 1b alone; strains of Table 3.

Broadly, the MIC is the smallest concentration in the dilution series that meets the test's criterion for growth inhibition.

Each structure is given as a SMILES string.

For the molecule `O=C(O)C1=CSC2/C(=C\c3ccc(Br)o3)C(=O)N12` (racemic) [Example 11b, (5RS) Sodium (Z)-6-(5-Bromofurfurylidene)penem-3-carboxylate], the “MIC” value in the assay on Staphylococci Oxford and in the assay on Staphylococci Russell was 50 µg/mL throughout.
Turning to `CO/N=C(\C(=O)N[C@@H]1C(=O)N2C(C(=O)O)=C(COC(C)=O)CS[C@H]12)c1csc(N)n1` [Cefotaxime], the “MIC Cephalosporin” value is 40 µg/mL in the assay with C.freundii T562 (Cefotaxime alone); above 80 µg/mL in the assay with Ps.aeruginosa Badia IR (Cefotaxime alone); 80 µg/mL in the assay with S.marcescens HCN 3956 (Cefotaxime alone); above 80 µg/mL with E.aerogenes P99 (Cefotaxime alone); above 80 µg/mL with E.cloacae Dokt 5 (Cefotaxime alone); above 80 µg/mL in the assay with Ps.aeruginosa Charlier (Cefotaxime alone). Besides, the “MIC Cephalosporin” value in the assay on E.cloacae 159/167 (Cefotaxime alone) is above 80 µg/mL; in the assay on E.aerogenes 53 (Cefotaxime alone), above 80 µg/mL; in the assay with C.freundii T1739 (Cefotaxime alone) it was 40 µg/mL; in the assay on E.cloacae 4508 (Cefotaxime alone) it was above 80 µg/mL; in the assay with E.cloacae P383 (Cefotaxime alone), above 80 µg/mL; in the assay with C.freundii 423 (Cefotaxime alone), 40 µg/mL. Besides, the “MIC Cephalosporin” value is above 80 µg/mL in the assay on S.marcescens V697 (Cefotaxime alone), above 80 µg/mL in the assay with M.morganii 978 (Cefotaxime alone), above 80 µg/mL in the assay on E.cloacae V692/80 (Cefotaxime alone) and 80 µg/mL in the assay with E.aerogenes 55 (Cefotaxime alone).
Consider `CC1(C)S[C@@H]2[C@H](NC(=O)[C@H](N)c3ccc(O)cc3)C(=O)N2[C@H]1C(=O)O` [Amoxycillin], for which the “MIC (µg/ml) of antibiotic” value in the assay with E. coli JT39 (RTEM) stood at 2000 µg/mL; with Kleb aerogenes, 500 µg/mL; in the assay on S Aureus Russell it was 500 µg/mL.
As to `O=C(O)C1=CSC2/C(=C/c3ccco3)C(=O)N12` (racemic) [Example 9b, (5RS) Sodium (E)-6-Furfurylidenepenem-3-carboxylate], the figures for the “MIC” value against Staphylococci Oxford and in the assay on Staphylococci Russell were 62 µg/mL and 125 µg/mL, respectively.
In the case of `O=C(Cc1cccs1)N[C@@H]1C(=O)N2C(C(=O)[O-])=C(C[n+]3ccccc3)CS[C@H]12` [Cephaloridine], in the assay with E.coli JT410, the “MIC (µg/ml) of antibiotic” value lay in the range of 62 to 125 µg/mL.
`O=C(O)C1=CSC2/C(=C\c3cccs3)C(=O)N12` (racemic) [Example 7b, (5RS) Sodium (Z)-6-(2-thienyl)methylenepenem-3-carboxylate]: the “MIC” value against Staphylococci Oxford turned out to be 100 µg/mL; against Staphylococci Russell, 50 µg/mL.
Take `O=C(O)C1=CSC2/C(=C/c3ccoc3)C(=O)N12` (racemic) [Example 12b, (5RS) Sodium (E)-6-(3-Furylmethylene)penem-3-carboxylate]: the minimal inhibitory concentration (MIC) with Staphylococci Oxford turned out to be 100 µg/mL; against Staphylococci Russell, 50 µg/mL.
`CCSC1=C(C(=O)O)N2C(=O)/C(=C/c3ccc(COC(C)=O)o3)C2S1` (racemic) [Example 5b, (SRS) Sodium (z)-6-(5-Acetoxymethylfurfurylidene)-2-ethylthiopenem-3-carboxylate]: the “MIC” value worked out at 3.1 µg/mL in the assay with Staphylococci Oxford and 12.5 µg/mL against Staphylococci Russell.
`CCSC1=C(C(=O)O)N2C(=O)/C(=C/c3ccco3)C2S1` (racemic) [Example 2b, (5RS) Sodium 2-Eth^ylthio - (Z)-6-furfurylidenepenem-3-carboxylate]: the minimal inhibitory concentration (MIC) was 5.0 µg/mL against Staphylococci Oxford and 10.0 µg/mL against Staphylococci Russell.
As to `O=C(O)C1=CSC2/C(=C\c3ccsc3)C(=O)N12` (racemic) [Example 8b, (5RS) Sodium (Z)-6-(3-thienyl)methylenepenem-3-carboxylate], the “MIC” value was determined as 50 µg/mL against Staphylococci Oxford and 12.5 µg/mL in the assay with Staphylococci Russell.
`CC(C)(O/N=C(\C(=O)N[C@@H]1C(=O)N2C(C(=O)[O-])=C(C[n+]3ccccc3)CS[C@H]12)c1csc(N)n1)C(=O)O` [Ceftazidine]: the “MIC Cephalosporin” value in the assay on C.freundii T562 (Ceftazidine alone) is 80 µg/mL; in the assay on Ps.aeruginosa Badia IR (Ceftazidine alone) it was above 80 µg/mL; in the assay with S.marcescens HCN 3956 (Ceftazidine alone), 5 µg/mL; in the assay on E.aerogenes P99 (Ceftazidine alone), 80 µg/mL; in the assay with E.cloacae Dokt 5 (Ceftazidine alone) it was above 80 µg/mL; with Ps.aeruginosa Charlier (Ceftazidine alone) it was 80 µg/mL. Besides, the “MIC Cephalosporin” value is above 80 µg/mL in the assay with E.cloacae 159/167 (Ceftazidine alone); above 80 µg/mL in the assay with E.aerogenes 53 (Ceftazidine alone); 80 µg/mL in the assay on C.freundii T1739 (Ceftazidine alone); above 80 µg/mL in the assay on E.cloacae 4508 (Ceftazidine alone); above 80 µg/mL in the assay on E.cloacae P383 (Ceftazidine alone); 80 µg/mL in the assay with C.freundii 423 (Ceftazidine alone). In addition, the “MIC Cephalosporin” value with S.marcescens V697 (Ceftazidine alone) is 80 µg/mL; in the assay with M.morganii 978 (Ceftazidine alone), 2.5 µg/mL; in the assay on E.cloacae V692/80 (Ceftazidine alone), above 80 µg/mL; with E.aerogenes 55 (Ceftazidine alone) it was 80 µg/mL.
On to `O=C(O)C1=CSC2/C(=C\c3ccco3)C(=O)N12` (racemic) [Example 1b, (5 RS) Sodium (Z) -6- Furfurylidenepenem - 3 - carboxylate], for which the “MIC” value against Staphylococci Oxford was 16.0 µg/mL; against Staphylococci Russell, 16.0 µg/mL; in assay [1], above 80 µg/mL.
Turning to `O=C(O)C1=C(SCCO)SC2/C(=C\c3ccco3)C(=O)N12` (racemic) [Example 3b, (5RS) Sodium (Z)-6-Furfurylidene-2-(2-hydroxyethylthio) penem-3-carboxylate], the “MIC” value against Staphylococci Oxford and in the assay on Staphylococci Russell was 12.5 µg/mL each time.
